Test results taken from patent publication US9334276B2, “Forms and salts of a dihydropyrrolo[1,2c]imidazolyl aldosterone synthase or aromatase inhibitor” (Novartis AG, priority 2012, dated 2016).
Like-named read-outs stand apart in the source and are kept apart here.

Assays:
[1] = Determination of solubility (excess solids equilibrated over 24 hours at 25° C.); type: physicochemical; conditions: thermodynamic from solid
Procedure: Excess solids were equilibrated in each solvent for over 24 hours at 25° C.±0.1. Concentration in supernatant was measured by gravimetry for organic solvents and by HPLC from aqueous solvents and propylene glycol.

[2] = Hygroscopicity: sorption/desorption isotherms, VTI 100 humidity microbalance; type: physicochemical; conditions: for Moisture gain (water uptake): 25° C.
Procedure: Sorption/desorption isotherms were measured using the VTI 100 humidity microbalance (VTI Corporation, Hialeah, Fla., USA). Measurements were carried out at 25° C. Samples were dried under N2 flow at 25° C.

## N#Cc1ccc([C@H]2CCc3cncn32)c(F)c1 [Free base, 4-(R)-(6,7-Dihydro-5H-pyrrolo[1,2-c]imidazol-5-yl)-3-fluoro-benzonitrile]
[1]; organic solvent or mixture, Ethyl Acetate, read-out: Solubility profile
  solubility: > 50 mg/mL
[1]; simulated gastric fluid, pH 1, read-out: Solubility profile
  solubility: > 50 mg/mL
[2]; 0% r.h.
  Moisture gain (water uptake): 0.0%
[2]; 5% r.h.
  Moisture gain (water uptake): 0.0%
[2]; 25% r.h.
  Moisture gain (water uptake): 0.1%
[2]; 50% r.h.
  Moisture gain (water uptake): 0.2%
[2]; 75% r.h.
  Moisture gain (water uptake): 0.3%
[2]; 85% r.h.
  Moisture gain (water uptake): 0.5%
[2]; 95% r.h.
  Moisture gain (water uptake): 1.0%

## Cl.N#Cc1ccc([C@H]2CCc3cncn32)c(F)c1 [HCl salt, HCl salt of 4-(R)-(6,7-dihydro-5H-pyrrolo[1,2-c]imidazol-5-yl)-3-fluoro-benzonitrile, reference compound]
[2]; 0% r.h.
  Moisture gain (water uptake): 0.0%
[2]; 5% r.h.
  Moisture gain (water uptake): 0.0%
[2]; 25% r.h.
  Moisture gain (water uptake): 0.5%
[2]; 50% r.h.
  Moisture gain (water uptake): 0.2%
[2]; 75% r.h.
  Moisture gain (water uptake): 0.2%
[2]; 85% r.h.
  Moisture gain (water uptake): 3.3%
[2]; 95% r.h.
  Moisture gain (water uptake): 23.6%
[2]; in contrast to the phosphate and nitrate salts
  Hygroscopicity (in words): excessive hygroscopicity

## N#Cc1ccc([C@H]2CCc3cncn32)c(F)c1.O=P(O)(O)O [Phosphate salt, Phosphate salt of 4-(R)-(6,7-dihydro-5H-pyrrolo[1,2-c]imidazol-5-yl)-3-fluoro-benzonitrile (Form A)]
[2]; 0% r.h.
  Moisture gain (water uptake): 0.0%
[2]; 5% r.h., listed as Phosphate
  Moisture gain (water uptake): 0.0%
[2]; 5% r.h., listed as phosphate salt
  Moisture gain (water uptake): 0%
[2]; 25% r.h.
  Moisture gain (water uptake): 0.1%
[2]; 50% r.h.
  Moisture gain (water uptake): 0.1%
[2]; 75% r.h., listed as Phosphate
  Moisture gain (water uptake): 0.2%
[2]; 75% r.h., listed as phosphate salt
  Moisture gain (water uptake): 0.9%
[2]; 85% r.h.
  Moisture gain (water uptake): 0.3%
[2]; 95% r.h.
  Moisture gain (water uptake): 0.8%

## N#Cc1ccc([C@H]2CCc3cncn32)c(F)c1.O=[N+]([O-])O [nitrate salt, Nitrate salt of 4-(R)-(6,7-dihydro-5H-pyrrolo[1,2-c]imidazol-5-yl)-3-fluoro-benzonitrile]
[2]; 0% r.h.
  Moisture gain (water uptake): 0.0%
[2]; 5% r.h.
  Moisture gain (water uptake): 0%
[2]; 5% r.h., listed as Nitrate
  Moisture gain (water uptake): 0.0%
[2]; 25% r.h.
  Moisture gain (water uptake): 0.1%
[2]; 50% r.h.
  Moisture gain (water uptake): 0.2%
[2]; 75% r.h.
  Moisture gain (water uptake): 0.2%
[2]; 85% r.h.
  Moisture gain (water uptake): 0.2%
[2]; 95% r.h.
  Moisture gain (water uptake): 0.2%
